Reference: US9937145B2, “Sulfamate derivative compound for use in preventing or treating epilepsy” (Bio-Pharm Solutions Co., Ltd., priority 2013, dated 2018)

Key:
Assay type in all cases: in vivo
male SD rats = experiment: MES test (anti-epilepsy activity), rats, oral (rMES po); details: Rattus norvegicus, rats, at peak time
Method: (§1) Biological Experimental Example. 1: Measurement of Anti-Epilepsy Activity (MES-Test)
(§2) In the MES test (Ref., G. Villetti et al. Neuropharmacology 40(2001) 866-878), an electrical stimulus (mice: 50 mA, 60 Hz, 0.2 sec, and rats: 150 mA, 60 Hz, 0.2 sec in the test animal) supplied by an 11 A Shocker (IITC Life Science Company) was delivered through corneal electrodes. All mice or rats assigned to any electroshock at peak time were treated with each test compound sample which was dissolved in 20% tween 80 prepared by saline solvent applied orally before the test. […] Three doses of the test sample were administered orally to 9-18 animals (3-6 mice per dose) for evaluating the respective doses at which 50% of the animals were protected from seizure (ED50). The ED50 value (median effective close) was calculated by Litchfield and Wicoxon log-probit method which is a dose-response relationship. Experimental animals, male ICR mice and male SD rats, were purchased from OrientBio, Samtako, or Nara Biotech, Korea, and housed in cages (4-5 mice or 3 rats per cage) for 4-5 days. The range of mice body weight was between 19 and 25 grams and range of rats body weight was between 100 and 130 grams.
(§3) The obtained results are shown as mean±sem. The difference between the groups was statistically analyzed by ANOVA, and then further examined by Dunnett's test or Bonferroni test. If p is less than 0.05, it was determined that the difference between the groups had statistical significance.
(§4) The results of anti-epileptic activity of the sulfamate derivative compounds measured in the above Experimental Example are shown in the following Tables 4 and 5.

Male Sprague-Dawley rats [1] = experiment: Lithium-pilocarpine induced epilepsy test (LI-PILO), prevention test, i.p.; details: rat, prevention
Method: (§5) Biological Experimental Example 2: Lithium-Pilocarpine Induced Epilepsy Test (LI-PILO Test)
(§6) Male Sprague-Dawley rats (purchased from Orient Bio Inc. Korea) of body weight 175 grams were used for these studies and 3 rats per cage were housed for 4-5 days. On the day prior to SE, rats received 127 mg/kg lithium chloride (Sigma, St. Louis, Mo., U.S.A.) intraperitoneally (i.p.). Approximately 18-20 h following this treatment, rats were given an i.p. injection of 43 mg/kg pilocarpine (Sigma). An i.p. injection of 2 mg/kg methyl-scopolamine (Sigma) was administered 30 min prior to pilocarpine to block the effects of the muscarinic agonist on peripheral cholinergic receptors. Test drugs were dissolved in 20% tween80 (Sigma).
The drugs were administered intraperitoneally (i.p.) in a volume of 2 ul/g body weight. Pharmacological effects of all of the test materials were evaluated to compare test groups (n=6) with a control group (n=6). Control group was administered vehicle only. The efficacy was measured 0.5, 1, 2, or 4 hours after the administration of the test material. The time point that the most animals were protected was defined as peak time and the ED50 was determined at peak time. The animals were then transferred to observation cages and observed continuously for 90 min. Seizure was elicited in approximately 95% of the control group. Protection was defined as complete absence of seizure grade 3˜5 (Racine scale; Racine, 1972) over the 90-min observation period. The effective dose of the compound necessary to protect 50% of the animals against seizures compared to controls (i.e. ED50) was determined by a curve fitting program (Excel 2007, Microsoft).
(§7) The results of Lithium-pilocarpine induced epilepsy test of the sulfamate derivative compounds measured in the above Experimental Example are shown in the following Tables 6.

male ICR mice = experiment: MES test (anti-epilepsy activity), mice, oral (mMES po); details: Mus musculus
Method: as §1, §2, §3, §4

Male Sprague-Dawley rats [2] = experiment: Lithium-pilocarpine induced epilepsy test (LI-PILO), intervention, i.v. at SE onset; details: iv; rat, administered at SE onset; read-out: Therapeutic effect (min, rat/lv) ED50(mg/kg)
Method: as §5, §6
The drugs were administered intravenously (i.v.) in a volume of 2 ul/g body weight at SE onset. Pharmacological effects of all of the test materials were evaluated to compare test groups (n=3-6) with a control group (n=3-6). Control group was administered vehicle only. The animals were then transferred to observation cages and observed continuously for 90 min. Seizure was elicited in approximately 95% of the control group. […]
as §7

Male Sprague-Dawley rats [3] = experiment: Lithium-pilocarpine induced epilepsy test (LI-PILO), prevention test, i.p.; details: injection amount 30 mg/kg, 3 rats, 1 h

Compound	ED50 (male SD rats) [mg/kg]	ED50 (Male Sprague-Dawley rats [1]; ip, at peak time, read-out: Anti-epileptogenesis (rat/ip) ED50(mg/kg)) [mg/kg]	Anti-epileptogenesis (rat/ip) Peak Time (Male Sprague-Dawley rats [1]) [h]	ED50 (male ICR mice; mice, at peak time) [mg/kg]	ED50 (Male Sprague-Dawley rats [2]) [mg/kg]	responders at 100 mg/kg (male ICR mice; injection amount 100 mg/kg, 3 mice, read-out: mMES(po) Protection %) [%]	Anti-epileptogenesis (rat/ip) Protection % (Male Sprague-Dawley rats [3])
CC1(C)O[C@@H](COS(N)(=O)=O)[C@H](c2ccccc2Cl)O1 [Example 2, ((4S, 5S)-5-(2-chlorophenyl)-2,2-dimethyl-1,3-dioxolan-4-yl)methyl sulfamate]	3.5	97.1	4	9	89		
Cc1ncsc1[C@H]1OC(C)(C)O[C@@H]1COS(N)(=O)=O [Example 167, ((4R, 5S)-2,2-dimethyl-5-(4-methylthiazol-5-yl)-1,3-dioxolan-4-yl)methylsulfamate]			1			100	30^a(100%)
